Source: patent publication US5405843A, “Quinoline derivatives” (Mitsui Toatsu Chemicals, Incorporated, priority 1988, dated 1995)

Experiments:
[1] = test system: drug-resistant cancer cells; conditions: calcium antagonists such as verapamil; cited from earlier work
[2] = test system: Adriamycin resistant strain K562/ADM cells of human myeloleukemia K562 cells; assay: Potentiating effect on activity of vincristine against adriamycin-resistant cells (growth inhibition); format: cell-based; conditions: for effect in potentiating vincristine activity, multiples of the control: ratio to control IC50 655
Excerpt: Potentiating Effect of the Compounds on Activity of Anticancer Drugs

[3] = test system: Vincristine-resistant strain P388/VCR cells of mouse leukemia P388 cells; assay: Potentiating effect on vincristine in mice having vincristine-resistant mouse leukemia (survival); format: in vivo, mouse (female CDFI mice); conditions: peritoneal, once a day for 5 days; for T/C (rate of life prolongation): control = 100
[4] = test system: Adriamycin resistant strain 2780 AD cells of human ovarian cancer A2780 cells; assay: Potentiating effect on incorporation of 3H-vincristine into adriamycin-resistant cancer cells; format: cell-based; conditions: Homo sapiens, 2780AD, 2 h, 20 nM 3H-vincristine, control = 100, read-out: 3H-vincristine accumulation; for activity at 1 µg/mL: compound 1 μg/ml; for activity at 10 µg/mL: compound 10 μg/ml
How it was run: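 Cells at 1×10^6/ml were grown 24 h, then incubated 2 h at 37 °C in RPMI-1640 with 20 nM ^3H-vincristine, 5% FCS and compound (solution at 1.0 or 10.0 μg/ml). After washing and lysis in 0.2N NaOH, cellular ^3H-vincristine was counted by scintillation.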

[5] = compound 3 mg/kg + vincristine 100 ug/kg
[6] = compound 10 mg/kg + vincristine 100 ug/kg
[7] = compound 30 mg/kg + vincristine 100 ug/kg

Structure (SMILES)	Average surviving period [3, 7]	T/C (rate of life prolongation) [3, 7]	activity at 1 µg/mL [4]	activity at 10 µg/mL [4]	other results
COc1ccc(CCN(C)CCCC(C#N)(c2ccc(OC)c(OC)c2)C(C)C)cc1OC (stereo not drawn) [verapamil]					prevention of discharge of anticancer drugs from cancer cells [1]: prevent discharge of anticancer drugs from cancer cells
CC[C@]1(O)C[C@H]2CN(CCc3c([nH]c4ccccc34)[C@@](C(=O)OC)(c3cc4c(cc3OC)N(C=O)[C@H]3[C@@](O)(C(=O)OC)[C@H](OC(C)=O)[C@]5(CC)C=CCN6CC[C@]43[C@@H]65)C2)C1 [Vincristine, vincristine, reference compound]					IC50 ([2]; Homo sapiens, K562, read-out: IC50 (vincristine concentration at which 50% of the growth was inhibited)): 0.655 mg/L
OC(COc1cccc2ncccc12)CN1CCN(C(c2ccccc2)c2ccccc2)CC1 (stereo not drawn) [Example 1, 5-[3-(4-Diphenylmethylpiperazine-1-yl)-2-hydroxypropoxy]quinoline]	12.8 ± 0.4 days	114%	717%	747%	effect in potentiating vincristine activity, multiples of the control ([2]; compound 0.3 μg/ml): 151.2; effect in potentiating vincristine activity, multiples of the control ([2]; compound 1 μg/ml): 342.1; effect in potentiating vincristine activity, multiples of the control ([2]; compound 3 μg/ml): 433.3; Average surviving period [3, 5]: 12.4 ± 0.2 days; T/C (rate of life prolongation) [3, 5]: 111%; Average surviving period [3, 6]: 12.2 ± 0.4 days; T/C (rate of life prolongation) [3, 6]: 109%
Cc1cc(C)c2c(OCC(O)CN3CCN(C4c5ccccc5CCc5ccccc54)CC3)cccc2n1 (stereo not drawn) [Example 22, 5-[3-(4-(Dibenzosuberane-5-yl)piperazine-1-yl)-2-hydroxypropoxy]-2,4-dimethylquinoline]	13.9 ± 0.4 days	132%	723%	743%	
OC(COc1cccc2nc(Cl)ccc12)CN1CCN(C(c2ccccc2)c2ccccc2)CC1 (stereo not drawn) [Example 41, 2-Chloro-5-[3-(4-diphenylmethylpiperazine-1-yl)-2-hydroxypropoxy]quinoline]	13.2 ± 1.8 days	120%	584%		
COc1ccc(C(c2cccc(OC)c2OC)N2CCN(CC(O)COc3cccc4ncccc34)CC2)cc1OC (stereo not drawn) [Example 11, 5-[3-(4-(2,3,3',4'-Tetramethoxydiphenylmethyl)piperazine-1-yl)-2-hydroxypropoxy]quinoline]	12.1 ± 0.5 days	115%	735%		
OC(COc1cccc2ncccc12)CN1CCC(=C2c3ccccc3CCc3ccccc32)CC1 (stereo not drawn) [Example 80, 5-[3-(4-(Dibenzosuberane-5-ylidene)piperidine-1-yl)-2-hydroxypropoxy]quinoline]	14.3 ± 0.6 days	134%	942%		
Cc1cc(C)c2c(OCC(O)CN3CCN(C(=O)C(c4ccccc4)c4ccccc4)CC3)cccc2n1 (stereo not drawn) [Example 53, 2,4-Dimethyl-5-[3-((α,α-diphenylacetyl)piperazine-1-yl)-2-hydroxypropoxy]quinoline]	11.8 ± 0.8 days	111%	658%	794%	
CN(CCN(C)C(c1ccccc1)c1ccccc1)CC(O)COc1cccc2ncccc12 (stereo not drawn) [Example 3, 5-(3-[N-(2-(N-Diphenylmethyl-N-methylamino)ethyl)-N-methylamino]-2-hydroxypropoxy)quinoline]	11.0 ± 0.6 days	100%	731%	774%	
O=C(N1CCN(CC(O)COc2cccc3ncccc23)CC1)N1c2ccccc2CCc2ccccc21 (stereo not drawn) [Example 60, 5-[3-(4-(Iminodibenzyl-5-carbonyl)piperazine-1-yl)-2-hydroxypropoxy]quinoline]	12.4 ± 0.7 days	117%	643%	760%	
Cc1cc(C)c2c(OCC(O)CN3CCN(C(=O)N4c5ccccc5CCc5ccccc54)CC3)cccc2n1 (stereo not drawn) [Example 61, 2,4-Dimethyl-5-[3-(4-(iminodibenzyl-5-carbonyl)piperazine-1-yl)-2-hydroxypropoxy]quinoline]	11.5 ± 0.3 days	108%	519%	602%	
OC(COc1cccc2ncccc12)CN1CCC(=C(c2ccccc2)c2ccccc2)CC1 (stereo not drawn) [Example 13, 5-[3-(4-(Diphenylmethylene)piperidine-1-yl)-2-hydroxypropoxy]quinoline]	15.3 ± 0.5 days	139%	517%	805%	
OC(COc1cccc2ncccc12)CN1CCN(C2c3ccccc3CCc3ccccc32)CC1 (stereo not drawn) [Example 2, 5-[3-(4-(Dibenzosuberane-5-yl)piperazine-1-yl)-2-hydroxypropoxy]quinoline]	15.2 ± 0.7 days	136%	663%	709%	effect in potentiating vincristine activity, multiples of the control ([2]; compound 0.3 μg/ml): 330.3; effect in potentiating vincristine activity, multiples of the control ([2]; compound 1 μg/ml): 388.0; effect in potentiating vincristine activity, multiples of the control ([2]; compound 3 μg/ml): 550.0; Average surviving period [3, 5]: 12.6 ± 0.2 days; T/C (rate of life prolongation) [3, 5]: 113%
Cc1cc(C(F)(F)F)nc2cccc(OCC(O)CN3CCN(C(=O)C(c4ccccc4)c4ccccc4)CC3)c12 (stereo not drawn) [Example 55, 2-Trifluoromethyl-4-methyl-5-[3-(4-(α,α-diphenylacetyl)piperazine-1-yl)-2-hydroxypropoxy]quinoline]	12.7 ± 0.3 days	120%	452%	756%	
OC(COc1cccc2ncccc12)CN1CCC(C2c3ccccc3CCc3ccccc32)CC1 (stereo not drawn) [Example 81, 5-[3-(4-(Dibenzosuberane-5-yl)piperidine-1-yl)-2-hydroxypropoxy]quinoline]	13.2 ± 0.9 days	123%	992%		
c1ccc2c(c1)CCc1ccccc1C2N1CCN(CCCOc2cccc3ncccc23)CC1 [Example 83, 5-[3-(4-(Dibenzosuberane-5-yl)piperazine-1-yl)propoxy]quinoline]	13.5 ± 0.5 days	126%	957%		
CCc1cnc2cccc(OCC(O)CN3CCN(C(c4ccccc4)c4ccccc4)CC3)c2c1 (stereo not drawn) [Example 12, 3-Ethyl-5-[3-(4-diphenylmethylpiperazine-1-yl)-2-hydroxypropoxy]quinoline]	12.5 ± 0.5 days	114%	568%	831%	
